In ChEMBL document CHEMBL1926613, “Bisubstrate analogue inhibitors of 6-hydroxymethyl-7,8-dihydropterin pyrophosphokinase: New design with improved properties” (Bioorg Med Chem, 2012):
pIC50, pKd: −log10 of the molar value.

Assays:
[1] = molecular target: T1, 2-amino-4-hydroxy-6-hydroxymethyldihydropteridine pyrophosphokinase (Escherichia coli (strain K12), UniProt P26281); test: Binding affinity to Escherichia coli HPPK using 6-hydroxymethyl-7,8-dihydropterin as substrate and ATP by fluorometric analysis
T1 sequence (P26281 whole entry): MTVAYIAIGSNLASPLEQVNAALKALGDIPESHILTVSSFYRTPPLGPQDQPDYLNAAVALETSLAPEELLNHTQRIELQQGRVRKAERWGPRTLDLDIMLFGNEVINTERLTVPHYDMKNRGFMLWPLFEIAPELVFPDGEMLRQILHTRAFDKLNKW

[2] = molecular target: T1, 2-amino-4-hydroxy-6-hydroxymethyldihydropteridine pyrophosphokinase; test: Inhibition of Escherichia coli HPPK using 6-hydroxymethyl-7,8-dihydropterin as substrate and [32P]-ATP

SMILES	pKd [1]	pIC50 [2]
Nc1nc2ncc(CNCCN3CCC(SC[C@H]4O[C@@H](n5cnc6c(N)ncnc65)[C@H](O)[C@@H]4O)CC3)nc2c(=O)[nH]1	< 3.82	< 4.00
CC1(C)Nc2nc(N)[nH]c(=O)c2N=C1C(=O)NCCN1CCC(SC[C@H]2O[C@@H](n3cnc4c(N)ncnc43)[C@H](O)[C@@H]2O)CC1	5.59	5.50
Nc1nc2ncc(COP(=O)(O)OP(=O)(O)OP(=O)(O)OP(=O)(O)OC[C@H]3O[C@@H](n4cnc5c(N)ncnc54)[C@H](O)[C@@H]3O)nc2c(=O)[nH]1	6.33	6.36
